We go through 36 compounds from patent US9302991B2, “Arylamide derivatives as TTX-S blockers” (RaQualia Pharma Inc., priority 2010, dated 2016).

The target in this test is T1, human Nav1.7 channels (Homo sapiens, UniProt Q15858).
T1 construct: expressed in transfected cells; host or cells: CHO
Nature of the test: FRET assay, human Nav1.7 (EFS on FDSS). It is filed as cell-based. The following applies: CHO cells expressing human Nav1.7, read-out: IC50 against Nav1.7. In outline: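 CHO cells stably expressing the channel, loaded with CC2-DMPE (10 µM) then DiSBAC2(3) (15 µM) plus VABSC-1, in HEPES-buffered saline pH 7.4 at room temperature. Electrical field stimulation on FDSS; FRET ratio at 440 nm fitted for IC50.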

T1 sequence (Q15858 whole entry): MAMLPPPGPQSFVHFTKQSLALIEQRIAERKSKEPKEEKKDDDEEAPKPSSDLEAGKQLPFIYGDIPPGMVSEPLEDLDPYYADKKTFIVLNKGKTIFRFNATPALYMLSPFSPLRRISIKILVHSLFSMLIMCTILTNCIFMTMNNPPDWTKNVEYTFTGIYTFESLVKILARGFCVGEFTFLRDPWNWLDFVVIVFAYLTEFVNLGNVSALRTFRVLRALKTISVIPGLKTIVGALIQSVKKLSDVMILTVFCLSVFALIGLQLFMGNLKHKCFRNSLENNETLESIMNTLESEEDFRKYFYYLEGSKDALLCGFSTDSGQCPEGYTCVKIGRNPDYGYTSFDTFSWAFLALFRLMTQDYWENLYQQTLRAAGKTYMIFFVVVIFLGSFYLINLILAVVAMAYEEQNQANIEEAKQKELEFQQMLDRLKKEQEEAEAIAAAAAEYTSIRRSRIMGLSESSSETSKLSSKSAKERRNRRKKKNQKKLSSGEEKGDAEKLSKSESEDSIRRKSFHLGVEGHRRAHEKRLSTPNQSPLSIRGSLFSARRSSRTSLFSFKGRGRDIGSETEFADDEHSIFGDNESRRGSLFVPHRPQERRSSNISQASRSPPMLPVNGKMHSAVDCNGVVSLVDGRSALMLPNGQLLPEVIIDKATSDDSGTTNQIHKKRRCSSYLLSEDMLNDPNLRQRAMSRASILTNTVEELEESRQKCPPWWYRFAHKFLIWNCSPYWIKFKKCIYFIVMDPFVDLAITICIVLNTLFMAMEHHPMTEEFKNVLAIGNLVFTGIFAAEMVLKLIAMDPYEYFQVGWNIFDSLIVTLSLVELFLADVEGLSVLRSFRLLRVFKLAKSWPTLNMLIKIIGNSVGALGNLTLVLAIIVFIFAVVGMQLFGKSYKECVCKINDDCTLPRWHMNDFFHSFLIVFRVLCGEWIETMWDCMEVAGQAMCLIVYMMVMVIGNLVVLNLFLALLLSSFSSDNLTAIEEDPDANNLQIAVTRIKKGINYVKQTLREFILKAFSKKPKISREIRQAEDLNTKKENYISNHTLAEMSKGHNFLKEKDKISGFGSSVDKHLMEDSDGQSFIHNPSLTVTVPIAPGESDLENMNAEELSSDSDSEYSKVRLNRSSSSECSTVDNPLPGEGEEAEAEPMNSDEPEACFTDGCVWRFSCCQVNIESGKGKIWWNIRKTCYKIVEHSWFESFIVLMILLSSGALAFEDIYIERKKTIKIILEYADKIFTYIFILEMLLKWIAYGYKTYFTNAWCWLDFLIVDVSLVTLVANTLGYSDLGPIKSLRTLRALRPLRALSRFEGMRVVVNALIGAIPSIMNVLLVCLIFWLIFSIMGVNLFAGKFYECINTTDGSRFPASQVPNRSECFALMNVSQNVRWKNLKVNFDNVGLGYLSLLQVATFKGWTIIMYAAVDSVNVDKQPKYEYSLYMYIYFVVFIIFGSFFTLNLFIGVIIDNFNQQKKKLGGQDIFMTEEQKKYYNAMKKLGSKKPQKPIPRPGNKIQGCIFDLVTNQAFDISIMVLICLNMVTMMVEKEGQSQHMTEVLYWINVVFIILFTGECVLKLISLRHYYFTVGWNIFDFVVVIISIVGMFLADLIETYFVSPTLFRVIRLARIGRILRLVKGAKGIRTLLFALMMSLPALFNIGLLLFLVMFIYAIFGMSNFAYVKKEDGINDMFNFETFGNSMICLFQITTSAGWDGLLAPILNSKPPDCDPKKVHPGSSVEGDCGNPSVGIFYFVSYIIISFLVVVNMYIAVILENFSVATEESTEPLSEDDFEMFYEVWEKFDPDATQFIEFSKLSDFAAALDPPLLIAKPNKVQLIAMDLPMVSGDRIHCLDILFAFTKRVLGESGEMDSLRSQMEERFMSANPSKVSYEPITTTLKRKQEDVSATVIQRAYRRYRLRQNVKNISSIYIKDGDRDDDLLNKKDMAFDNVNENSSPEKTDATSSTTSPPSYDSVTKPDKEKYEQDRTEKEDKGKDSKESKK

Consider `CC(=O)Nc1cc(C(=O)N(C)Cc2cnc(OCC(F)(F)F)c(C)c2)cc(C)n1` [Example 394, 2-acetamido-N,6-dimethyl-N-((5-methyl-6-(2,2,2-trifluoroethoxy)pyridin-3-yl)methyl)isonicotinamide], for which the IC50 is under 1000 nM.
Take `O=C(NCc1ccc(OCC(F)(F)F)nc1)c1ccnc(NC(=O)C2CC2)n1` [Example 397, 2-(cyclopropanecarboxamido)-N-((6-(2,2,2-trifluoroethoxy)pyridin-3-yl)methyl)pyrimidine-4-carboxamide]: the half-maximal inhibitory concentration (IC50) was under 1000 nM.
Then `Cc1cc(OCC(F)(F)F)ncc1CNC(=O)c1ccnc(NC(=O)C2CC2)n1` [Example 403, 2-(cyclopropanecarboxamido)-N-((4-methyl-6-(2,2,2-trifluoroethoxy)pyridin-3-yl)methyl)pyrimidine-4-carboxamide], with under 1000 nM.
As for `O=C(NCc1cccc(C(F)(F)F)c1)c1ccnc(NC(=O)C2CC2)n1` [Example 404, 2-(cyclopropanecarboxamido)-N-(3-(trifluoromethyl)benzyl)pyrimidine-4-carboxamide], the IC50 was under 1000 nM.
The value for `Cc1nc(OCC(F)(F)F)ccc1CNC(=O)c1ccnc(NC(=O)C2CC2)n1` [Example 407, 2-(cyclopropanecarboxamido)-N-((2-methyl-6-(2,2,2-trifluoroethoxy)pyridin-3-yl)methyl)pyrimidine-4-carboxamide] was under 1000 nM.
Regarding `CC(C)C(=O)Nc1nccc(C(=O)NCc2cnc(OCC(F)(F)F)c(Cl)c2)n1` [Example 412, N-((5-chloro-6-(2,2,2-trifluoroethoxy)pyridin-3-yl)methyl)-2-isobutyramidopyrimidine-4-carboxamide], the IC50 was under 1000 nM.
The value for `COc1cc(CNC(=O)c2cc(C)nc(NC(=O)C3CC3)n2)cnc1OCC(F)(F)F` [Example 442, 2-(cyclopropanecarboxamido)-N-((5-methoxy-6-(2,2,2-trifluoroethoxy)pyridin-3-yl)methyl)-6-methylpyrimidine-4-carboxamide] was under 1000 nM; that for `COc1cc(CNC(=O)c2ccnc(NC(=O)C3CC3)n2)cnc1OCC(F)(F)F` [Example 444, 2-(cyclopropanecarboxamido)-N-((5-methoxy-6-(2,2,2-trifluoroethoxy)pyridin-3-yl)methyl)pyrimidine-4-carboxamide] was under 1000 nM; that for `Cc1cc(C(=O)NCc2ccc(OCCC(F)(F)F)nc2)cc(NC(=O)C(C)C)n1` [Example 490, 2-isobutyramido-6-methyl-N-((6-(3,3,3-trifluoropropoxy)pyridin-3-yl)methyl)isonicotinamide] was under 1000 nM.
`Cc1cc(C(=O)NCc2ccc(OCC(F)(F)F)nc2C)cc(NC(=O)C(C)C)n1` [Example 493, 2-isobutyramido-6-methyl-N-((2-methyl-6-(2,2,2-trifluoroethoxy)pyridin-3-yl)methyl)isonicotinamide]: the IC50 was under 1000 nM.
The value for `CC(=O)Nc1cc(C(=O)NCc2cccc(C(F)(F)F)c2)cc(C)n1` [Example 532, 2-acetamido-6-methyl-N-(3-(trifluoromethyl)benzyl)isonicotinamide] was under 1000 nM; that for `CCC(=O)Nc1cc(C(=O)NCc2cnc(OCC(F)F)c(Cl)c2)cc(C)n1` [Example 618, N-((5-chloro-6-(2,2-difluoroethoxy)pyridin-3-yl)methyl)-2-methyl-6-propionamidoisonicotinamide] was under 1000 nM.
`Cc1cc(C(=O)NCc2cnc(OCC(F)F)c(Cl)c2)cc(NC(=O)C(C)C)n1` [Example 620, N-((5-chloro-6-(2,2-difluoroethoxy)pyridin-3-yl)methyl)-2-isobutyramido-6-methylisonicotinamide]: the IC50 is under 1000 nM.
For the compound `O=C(NCc1ccc(OCC(F)(F)C(F)F)nc1)c1ccnc(NC(=O)C2CC2)c1` [Example 635, 2-(cyclopropanecarboxamido)-N-((6-(2,2,3,3-tetrafluoropropoxy)pyridin-3-yl)methyl)isonicotinamide], the IC50 was under 1000 nM.
Then `O=C(NCc1ccc(OCC(F)(F)C(F)F)nc1)c1ccnc(NC(=O)C2CC2)n1` [Example 651, 2-(cyclopropanecarboxamido)-N-((6-(2,2,3,3-tetrafluoropropoxy)pyridin-3-yl)methyl)pyrimidine-4-carboxamide], with under 1000 nM; and `O=C(NCc1cnc(OCC(F)F)c(Cl)c1)c1ccnc(NC(=O)C2CC2)c1` [Example 705, N-((5-chloro-6-(2,2-difluoroethoxy)pyridin-3-yl)methyl)-2-(cyclopropanecarboxamido)isonicotinamide], with under 1000 nM; and `CC(=O)Nc1cc(C(=O)NCc2cnc(OCC(F)F)c(Cl)c2)cc(C)n1` [Example 706, 2-acetamido-N-((5-chloro-6-(2,2-difluoroethoxy)pyridin-3-yl)methyl)-6-methylisonicotinamide], with under 1000 nM.
As for `CC(=O)Nc1cc(C(=O)NCc2cnc(OCC(F)(F)F)c(-c3ccco3)c2)ccn1` [Example 770, 2-acetamido-N-((5-(furan-2-yl)-6-(2,2,2-trifluoroethoxy)pyridin-3-yl)methyl)isonicotinamide], the IC50 is under 1000 nM.
Turning to `CC(=O)Nc1cc(C(=O)NCc2cnc(OCC(F)F)cc2C)cc(C)n1` [Example 778, 2-acetamido-N-((6-(2,2-difluoroethoxy)-4-methylpyridin-3-yl)methyl)-6-methylisonicotinamide], the IC50 is under 1000 nM.
With `COc1c(CNC(=O)c2cc(C)nc(NC(C)=O)c2)cccc1C(F)(F)F` [Example 819, 2-acetamido-N-(2-methoxy-3-(trifluoromethyl)benzyl)-6-methylisonicotinamide], the IC50 is under 1000 nM.
Then `COc1c(CNC(=O)c2ccnc(NC(=O)C(C)C)c2)cccc1C(F)(F)F` [Example 820, 2-isobutyramido-N-(2-methoxy-3-(trifluoromethyl)benzyl)isonicotinamide], with under 1000 nM; and `Cc1cc(C(=O)NCc2ccc(OCC(F)(F)F)nc2)cc(NC(=O)C2CC2)n1` [Example 822, 2-(cyclopropanecarboxamido)-6-methyl-N-((6-(2,2,2-trifluoroethoxy)pyridin-3-yl)methyl)isonicotinamide], with under 1000 nM.
Take `Cc1cc(C(=O)NCc2cnc(OCC(F)F)c(Cl)c2)cc(NC(=O)C2CC2)n1` [Example 826, N-((5-chloro-6-(2,2-difluoroethoxy)pyridin-3-yl)methyl)-2-(cyclopropanecarboxamido)-6-methylisonicotinamide]: the half-maximal inhibitory concentration (IC50) is under 1000 nM.
For `Cc1cc(C(=O)NCc2ccc(OCC(F)(F)C(F)(F)F)nc2)cc(NC(=O)C2CC2)n1` [Example 827, 2-(cyclopropanecarboxamido)-6-methyl-N-((6-(2,2,3,3,3-pentafluoropropoxy)pyridin-3-yl)methyl)isonicotinamide], the IC50 is under 1000 nM.
For the compound `Cc1cc(C(=O)NCc2cnc(OCC(F)F)c(C)c2)cc(NC(=O)C2CC2)n1` [Example 851, 2-(cyclopropanecarboxamido)-N-((6-(2,2-difluoroethoxy)-5-methylpyridin-3-yl)methyl)-6-methylisonicotinamide], the IC50 is under 1000 nM.
Consider `Cc1cc(C(=O)NCc2cccc(C(F)(F)F)c2)cc(NC(=O)C2CC2)n1` [Example 852, 2-(cyclopropanecarboxamido)-6-methyl-N-(3-(trifluoromethyl)benzyl)isonicotinamide], for which the half-inhibitory concentration (IC50) is under 1000 nM.
Then `COc1cc(OC(F)(F)F)ccc1CNC(=O)c1ccnc(NC(=O)C(C)C)c1` [Example 869, 2-isobutyramido-N-(2-methoxy-4-(trifluoromethoxy)benzyl)isonicotinamide], with under 1000 nM; and `COc1cc(OC(F)(F)F)ccc1CNC(=O)c1cc(C)nc(NC(C)=O)c1` [Example 870, 2-acetamido-N-(2-methoxy-4-(trifluoromethoxy)benzyl)-6-methylisonicotinamide], with under 1000 nM.
`COc1cc(OC(F)(F)F)ccc1CNC(=O)c1cc(C)nc(NC(=O)C(C)C)c1` [Example 871, 2-isobutyramido-N-(2-methoxy-4-(trifluoromethoxy)benzyl)-6-methylisonicotinamide]: the IC50 is under 1000 nM.
As for `Cc1cc(C(=O)NCc2cccc(C(F)(F)F)c2F)cc(NC(=O)C(C)C)n1` [Example 876, N-(2-fluoro-3-(trifluoromethyl)benzyl)-2-isobutyramido-6-methylisonicotinamide], the IC50 is under 1000 nM.
Then `Cc1cc(C(=O)NCc2cccc(C(F)(F)F)c2Cl)cc(NC(=O)C(C)C)n1` [Example 878, N-(2-chloro-3-(trifluoromethyl)benzyl)-2-isobutyramido-6-methylisonicotinamide], with under 1000 nM; and `Cc1cc(C(=O)NCc2cccc(C(F)(F)F)c2C)cc(NC(=O)C(C)C)n1` [Example 879, 2-isobutyramido-6-methyl-N-(2-methyl-3-(trifluoromethyl)benzyl)isonicotinamide], with under 1000 nM; and `CCC(=O)Nc1cc(C(=O)NCc2ccc(OCC(F)(F)F)c(OC)c2)ccn1` [Example 882, N-(3-methoxy-4-(2,2,2-trifluoroethoxy)benzyl)-2-propionamidoisonicotinamide], with under 1000 nM.
On to `COc1cc(CNC(=O)c2cc(C)nc(NC(C)=O)c2)ccc1OCC(F)(F)F` [Example 884, 2-acetamido-N-(3-methoxy-4-(2,2,2-trifluoroethoxy)benzyl)-6-methylisonicotinamide], for which the IC50 is under 1000 nM.
On to `COc1cc(CNC(=O)c2cc(C)nc(NC(=O)C(C)C)c2)ccc1OCC(F)(F)F` [Example 885, 2-isobutyramido-N-(3-methoxy-4-(2,2,2-trifluoroethoxy)benzyl)-6-methylisonicotinamide], for which the IC50 is under 1000 nM.
In the case of `CC(C)C(=O)Nc1cc(C(=O)NCc2cnc(OCC(F)(F)F)c(Br)c2)ccn1` [Example 897, N-((5-bromo-6-(2,2,2-trifluoroethoxy)pyridin-3-yl)methyl)-2-isobutyramidoisonicotinamide], the half-maximal inhibitory concentration (IC50) is under 1000 nM.

In general, IC50 refers to the concentration at which inhibition is half-maximal.
